The record followed here is patent US20150266908A1, “FLAME RETARDANT COMPRISING AROMATIC PHOSPHATE ESTER-BASED COMPOUND, AND METHOD FOR PREPARING SAME” (priority 2012, published 2015).

In this data set the test system is CHO cells. Briefly: Test on toxicity of DPBAP: chromosomal abnormality in CHO cells. It is filed as cell-based. On the procedure:
A test on the toxicity of the DPBAP in accordance with the method of the present invention was performed (by the Korea Research Institute of Chemical Technology). After treating the DPBAP to CHO cells, chromosomal abnormality was measured. Consequently, the increasing of the chromosomal abnormality was not observed in all of DPBAP treatment groups regardless of application of metabolic activation system. […] However, in the CHO cells, it was known that the polyploid and endoreduplication can be generally observed due to the over-proliferation, or other causes (Scott et al., 1990).

The structures appear in SMILES notation.

On to `CCCCNP(=O)(Oc1ccccc1)Oc1ccccc1` [DPBAP, Diphenylbutylaminophosphate], for which the “toxicity (overall conclusion)” value (CHO cells chromosomal abnormality test) is recorded as “no toxicity were observed”. The “increasing of the chromosomal abnormality” value (CHO cells, all DPBAP treatment groups, regardless of application of metabolic activation system) was “not observed”. Further, the cells dead result (CHO cells, highest concentration of the test material) is on record as “about 50%”. Moreover, the polyploid and endoreduplication entry (CHO cells, highest-concentration groups, treated during 24 hours) is “minority of polyploid and endoreduplication was observed”.
